Consider four compounds from patent US20050054585A1, “Agent controlling the production of osteoclast formation regulator and method of screening substance capable of controlling the production of osteoclast formation regulator” (priority 2001, published 2005).

In series [1] the test system is OPG production in FHs 74 Int cells, ATCC CCL 241. Nature of the series: Production of OPG in FHs 74 Int cell culture supernatant, Western Blotting. Type of series: cell-based, human. The conditions noted are these: 2-day culture with saccharide (1 mg/ml; α,α-trehalose 1, 0.2, 0.04 mg/ml), control without saccharide = 100.
Method: FHs 74 Int cells, ATCC CCL 241, were inoculated to 96-well plates, with D-MEM medium prepared by adding fetal calf serum, commercialized by GIBCO Bethesda Research Laboratories, Bethesda, Md., USA, to the serum-free culture medium shown in Table 1 below to give a final concentration of 10% (v/v), a final cell density of 1.2×10^4 cells/well, and a final volume of 200 μl; and incubated at 37° C. for 48 hours in a 5% CO2 (V/V) incubator. After completion of the culture, the resultant cells were washed thrice (200 μl×3) with the serum-free D-MEM medium in Table 1. […] Two hundred microliters of each of the saccharide solutions of Nos.1 to 7 were placed in each well of the 96-well plates with the cells, and the cells were incubated at 37 C for two days in a 5% CO2 (v/v) incubator. The culture supernatant in each well was sampled and assayed for the production level of OPG by the Western Blotting method as indicated below using a recombinant human OPG commercialized by R & D Systems Inc., MN, USA. In parallel, a cell culture system with no saccharide, as a control group, was provided and cultured, and the supernatant of the cell culture was sampled on day 2 after the initiation of the cell culture and assayed for the production level of OPG similarly as in the test group.
Fifteen microliters of any of the cell culture supernatants of the test solutions and the control solution, and five microliters of dithiothreitol (DTT) solution for cell treatment were mixed and heated at 99° C. for five minutes. Each of the resulting solutions with heat treatment was developed on SDS-polyacrylamide gel electrophoresis (SDS-PAGE) using multi-gel 4/20 commercialized by Daiichi Pure Chemicals Co., Ltd., Tokyo, Japan; and the gels were transferred to PVDF membranes commercialized by Nihon Millipore Corporation, Tokyo, Japan. The resulting PVDF membranes were blocked with a solution of “BLOCK ACE™”, commercialized by Dainippon Pharmaceutical Co., Ltd., Tokyo, Japan, and contacted with an anti-human OPG antibody as a primary antibody, commercialized by R & D Systems, MN, USA, and an HRP anti-goat IgG antibody, as a secondary antibody, commercialized by Sigma Chemical Co., MO, USA; followed by detecting proteins reacted with these antibodies in accordance with the method described in Experimental Medicine, special edition, titled Handbook for novel recombinant technology, pp. 222-226 (1999). The coloration was effected by using ECL reagent, commercialized by Amersham Pharmacia Biotechnology, IL, USA; exposing “[sequence] ECL™”; and measuring the expression intensity by using “IMAGE MASTER™”, commercialized by Amersham Biosciences, Tokyo, Japan.
For series [2], the system named is OPG production in MG-63 cells, ATCC CRL 1427. Nature of the series: Screening for control of the production of OPG in MG-63 cells. The class given is cell-based, human. The following applies: saccharide solutions Nos. 1 to 7, 2-day culture.
The subject of series [3] is ddy mice. The conditions noted are these: 15 g/kg body weight, by syringe or intubationally with stomach sonde, observed seven days. Here is the method: Either of the sterilized saccharide solutions was administered with a syringe or intubationally administered with a stomach sonde to five groups of ddy mice, having 20 to 25 g body weight, consisting of five heads in each group. The mice were observed their conditions for seven days.

Series [4] has as its system OPG. As to the kind of experiment: Administration test in healthy volunteers, blood OPG by ELISA. The class given is in vivo, human. The following applies: for production level of OPG in blood: 100 ml of 10% (w/v) solution orally after fasting, blood at six hours, ELISA. Here is the method:
Eighteen healthy volunteers, aged 35 to 50-years-old, were divided into three groups A, B, and C, consisting of three males and three females in each group. […] As a control solution, 1,000 ml of deionized water were sterilized with a membrane filter. These test and control solutions were stored at about 10° C. in a refrigerator until initiating the test. The volunteers in the groups A to C were allowed to fast, except for water, from 10 p.m. at night just before initiating the test, and 100 ml aliquots of the test solution 1, the test solution 2, and the control solution were administered to the groups A, B, and C, respectively, at 6 a.m. on the next day. Thereafter, all the volunteers were allowed to stay indoors calmly and sampled their blood at six hours after the administrations. The sampled bloods were centrifuged at […] for 10 min and quantified for OPG with “RS000805”, a product code number for ELISA system for assaying OPG commercialized by Funakoshi Co., Ltd., Tokyo. Japan.
On the technique in general: In an ELISA, binding on a coated surface is turned into a signal by an enzyme label.

Molecules are shown by their SMILES.

Take `OC[C@H]1O[C@H](O[C@H]2[C@H](O)[C@@H](O)C(O)O[C@@H]2CO)[C@H](O)[C@@H](O)[C@@H]1O` (mixture of isomers) [maltose]: the “expression intensity of OPG versus control cell culture system” value in series [1] is recorded as “lower than that for the control cell culture system”. In addition, the “production of OPG compared with a control culture system free of saccharide” value in series [2] is recorded as “remarkably inhibited the production of OPG”.
Turning to `O=C[C@H](O)[C@@H](O)[C@H](O)[C@H](O)CO` [D-glucose], in series [1], the “expression intensity of OPG versus control cell culture system” value is listed as “lower than that for the control cell culture system”. Moreover, the “production of OPG compared with a control culture system free of saccharide” value in series [2] is “remarkably inhibited the production of OPG”. For the same compound, the mortality result in series [3] was “no mouse died”. Moreover, the “production level of OPG in blood” value in series [4] (healthy volunteers) is “significantly lower production level of OPG than that of the group C with the control solution”. Also, in series [4] (human, in vivo, po), the “complaints of abnormality after administration” value is “no volunteer”.
As to `OC[C@H]1O[C@@](CO)(O[C@H]2O[C@H](CO)[C@@H](O)[C@H](O)[C@H]2O)[C@@H](O)[C@@H]1O` [sucrose], in series [1], the “expression intensity of OPG versus control cell culture system” value is “lower than that for the control cell culture system”. Besides, in series [2], the “production of OPG compared with a control culture system free of saccharide” value was “remarkably inhibited the production of OPG”. Besides, the mortality result in series [3] is recorded as “no mouse died”.
Turning to `OC[C@H]1O[C@H](O[C@H]2O[C@H](CO)[C@@H](O)[C@H](O)[C@H]2O)[C@H](O)[C@@H](O)[C@@H]1O` [α,α-trehalose], the “expression intensity of OPG versus control cell culture system” value in series [1] is recorded as “higher than that for the control cell culture system”. The “production of OPG compared with a control culture system free of saccharide” value in series [2] is reported as “distinctly enhanced the production of OPG”. In addition, the mortality entry in series [3] is recorded as “no mouse died”. Further, the “complaints of abnormality after administration” value in series [4] (healthy volunteers, 100 ml of 10% (w/v) solution orally) was “no volunteer”. Also, the “production level of OPG in blood” value in series [4] (healthy volunteers) was “significantly higher than those with the test solution 2 and the control solution”.
